Results reported in PubChem BioAssay (NCI).
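Cells were grown in 96-well plates and exposed to each compound for 48 hours at five concentrations; endpoints were interpolated linearly between bracketing concentrations, or set to the highest concentration if not reached. GI50 = concentration required for 50% inhibition of growth. TGI denotes the concentration required for complete inhibition of growth.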

What was measured:
Test in all cases: inhibition of tumour cell growth, NCI panel, 48 h
786-0 renal = test system: 786-0 renal
SNB-75 CNS = test system: SNB-75 CNS
HCT-116 colon = test system: HCT-116 colon
NCI/ADR-RES ovarian = test system: NCI/ADR-RES ovarian
NCI-H23 lung = test system: NCI-H23 lung
SK-MEL-28 melanoma = test system: SK-MEL-28 melanoma
OVCAR-8 ovarian = test system: OVCAR-8 ovarian
HOP-92 NSCLC = test system: HOP-92 NSCLC
T-47D breast = test system: T-47D breast
COLO 205 colon = test system: COLO 205 colon
SK-MEL-5 melanoma = test system: SK-MEL-5 melanoma
HCC-2998 colon = test system: HCC-2998 colon
LOX IMVI melanoma = test system: LOX IMVI melanoma
SF-539 CNS = test system: SF-539 CNS
MOLT-4 leukemia = test system: MOLT-4 leukemia
NCI-H226 lung = test system: NCI-H226 lung
M14 melanoma = test system: M14 melanoma
PC-3 prostate = test system: PC-3 prostate
HT29 colon = test system: HT29 colon
SF-268 CNS = test system: SF-268 CNS
SK-MEL-2 melanoma = test system: SK-MEL-2 melanoma
UACC-62 melanoma = test system: UACC-62 melanoma
BT-549 breast = test system: BT-549 breast
OVCAR-3 ovarian = test system: OVCAR-3 ovarian
NCI-H522 lung = test system: NCI-H522 lung
SW-620 colon = test system: SW-620 colon
MDA-MB-231 breast = test system: MDA-MB-231 breast
RXF 393 renal = test system: RXF 393 renal
NCI-H460 lung = test system: NCI-H460 lung
SNB-19 CNS = test system: SNB-19 CNS
KM12 colon = test system: KM12 colon
OVCAR-5 ovarian = test system: OVCAR-5 ovarian
SK-OV-3 ovarian = test system: SK-OV-3 ovarian
OVCAR-4 ovarian = test system: OVCAR-4 ovarian
HS 578T breast = test system: HS 578T breast
A498 renal = test system: A498 renal
TK-10 renal = test system: TK-10 renal
MDA-MB-435 = test system: MDA-MB-435
CCRF-CEM leukemia = test system: CCRF-CEM leukemia
IGROV1 ovarian = test system: IGROV1 ovarian
MALME-3M melanoma = test system: MALME-3M melanoma
CAKI-1 renal = test system: CAKI-1 renal
U251 CNS = test system: U251 CNS
SF-295 CNS = test system: SF-295 CNS
UO-31 renal = test system: UO-31 renal
HOP-62 NSCLC = test system: HOP-62 NSCLC
A549 NSCLC = test system: A549 NSCLC
MCF7 breast = test system: MCF7 breast
HCT-15 colon = test system: HCT-15 colon
RPMI-8226 leukemia = test system: RPMI-8226 leukemia
K-562 leukemia = test system: K-562 leukemia
UACC-257 melanoma = test system: UACC-257 melanoma
DU-145 prostate = test system: DU-145 prostate
SN12C renal = test system: SN12C renal
EKVX NSCLC = test system: EKVX NSCLC

With `COc1cc2c3c(n(CCCCl)c(=O)c2cc1OC)-c1ccc(C#N)cc1C3=O` as the compound, how does the GI50 (786-0 renal) read?
Its GI50 is 14.4 µM.

And the TGI (786-0 renal)?
The TGI was 29.4 µM.

What about the GI50 (SNB-75 CNS) of the same compound?
The GI50 was 4 µM.

What about the TGI (SNB-75 CNS) of the same compound?
The TGI was 15.8 µM.

What about the GI50 (HCT-116 colon) of the same compound?
The GI50 was 15.2 µM.

What about the TGI (HCT-116 colon) of the same compound?
Its TGI is over 100 µM.

And the GI50 (NCI/ADR-RES ovarian)?
Its GI50 is 22.4 µM.

What about the TGI (NCI/ADR-RES ovarian) of the same compound?
The TGI was over 100 µM.

And the GI50 (NCI-H23 lung)?
The GI50 was 8.38 µM.

And the TGI (NCI-H23 lung)?
The TGI was 20.9 µM.

What about the GI50 (SK-MEL-28 melanoma) of the same compound?
The GI50 was over 100 µM.

And the TGI (SK-MEL-28 melanoma)?
Its TGI is over 100 µM.

What about the GI50 (OVCAR-8 ovarian) of the same compound?
Its GI50 is 6.3 µM.

What about the TGI (OVCAR-8 ovarian) of the same compound?
Its TGI is 34.4 µM.

What about the GI50 (HOP-92 NSCLC) of the same compound?
The GI50 was 16.2 µM.

What about the TGI (HOP-92 NSCLC) of the same compound?
The TGI was 56.8 µM.

And the GI50 (T-47D breast)?
The GI50 was over 100 µM.

What about the TGI (T-47D breast) of the same compound?
Its TGI is over 100 µM.

What about the GI50 (COLO 205 colon) of the same compound?
Its GI50 is 43.3 µM.

And the TGI (COLO 205 colon)?
Its TGI is over 100 µM.

What about the GI50 (SK-MEL-5 melanoma) of the same compound?
The GI50 was 90.9 µM.

And the TGI (SK-MEL-5 melanoma)?
Its TGI is over 100 µM.

And the GI50 (HCC-2998 colon)?
The GI50 was 4.49 µM.

And the TGI (HCC-2998 colon)?
The TGI was 25.9 µM.

What about the GI50 (LOX IMVI melanoma) of the same compound?
Its GI50 is 3.43 µM.

What about the TGI (LOX IMVI melanoma) of the same compound?
The TGI was 19.4 µM.

What about the GI50 (SF-539 CNS) of the same compound?
Its GI50 is 7.18 µM.

What about the TGI (SF-539 CNS) of the same compound?
Its TGI is 28.2 µM.

And the GI50 (MOLT-4 leukemia)?
Its GI50 is 1.68 µM.

What about the TGI (MOLT-4 leukemia) of the same compound?
The TGI was over 100 µM.

What about the GI50 (NCI-H226 lung) of the same compound?
The GI50 was 16.7 µM.

What about the TGI (NCI-H226 lung) of the same compound?
The TGI was 94.9 µM.

What about the GI50 (M14 melanoma) of the same compound?
Its GI50 is 9.24 µM.

What about the TGI (M14 melanoma) of the same compound?
Its TGI is over 100 µM.

What about the GI50 (PC-3 prostate) of the same compound?
The GI50 was 32.4 µM.

And the TGI (PC-3 prostate)?
The TGI was over 100 µM.

What about the GI50 (HT29 colon) of the same compound?
Its GI50 is over 100 µM.

And the TGI (HT29 colon)?
Its TGI is over 100 µM.

What about the GI50 (SF-268 CNS) of the same compound?
The GI50 was 19.5 µM.

What about the TGI (SF-268 CNS) of the same compound?
The TGI was over 100 µM.

What about the GI50 (SK-MEL-2 melanoma) of the same compound?
The GI50 was 4.93 µM.

What about the TGI (SK-MEL-2 melanoma) of the same compound?
Its TGI is 24.5 µM.

And the GI50 (UACC-62 melanoma)?
The GI50 was 6.81 µM.

And the TGI (UACC-62 melanoma)?
The TGI was 22.5 µM.

What about the GI50 (BT-549 breast) of the same compound?
Its GI50 is 5.5 µM.

What about the TGI (BT-549 breast) of the same compound?
Its TGI is 23.6 µM.

What about the GI50 (OVCAR-3 ovarian) of the same compound?
Its GI50 is 12.9 µM.

What about the TGI (OVCAR-3 ovarian) of the same compound?
Its TGI is 30.1 µM.

And the GI50 (NCI-H522 lung)?
The GI50 was 6.63 µM.

What about the TGI (NCI-H522 lung) of the same compound?
The TGI was 59.2 µM.

What about the GI50 (SW-620 colon) of the same compound?
The GI50 was 0.996 µM.

What about the TGI (SW-620 colon) of the same compound?
The TGI was over 100 µM.

And the GI50 (MDA-MB-231 breast)?
Its GI50 is 1.67 µM.

What about the TGI (MDA-MB-231 breast) of the same compound?
The TGI was 10.2 µM.

And the GI50 (RXF 393 renal)?
Its GI50 is 3.85 µM.

What about the TGI (RXF 393 renal) of the same compound?
The TGI was 18.1 µM.

And the GI50 (NCI-H460 lung)?
The GI50 was 10.8 µM.

And the TGI (NCI-H460 lung)?
The TGI was over 100 µM.

And the GI50 (SNB-19 CNS)?
The GI50 was 22.1 µM.

And the TGI (SNB-19 CNS)?
Its TGI is over 100 µM.

And the GI50 (KM12 colon)?
Its GI50 is over 100 µM.

What about the TGI (KM12 colon) of the same compound?
Its TGI is over 100 µM.

And the GI50 (OVCAR-5 ovarian)?
The GI50 was 33.6 µM.

What about the TGI (OVCAR-5 ovarian) of the same compound?
Its TGI is over 100 µM.

And the GI50 (SK-OV-3 ovarian)?
The GI50 was 15.2 µM.

What about the TGI (SK-OV-3 ovarian) of the same compound?
The TGI was 44 µM.

What about the GI50 (OVCAR-4 ovarian) of the same compound?
Its GI50 is 88.7 µM.

And the TGI (OVCAR-4 ovarian)?
The TGI was over 100 µM.

What about the GI50 (HS 578T breast) of the same compound?
Its GI50 is 3.32 µM.

And the TGI (HS 578T breast)?
The TGI was 21.9 µM.

And the GI50 (A498 renal)?
Its GI50 is 16.1 µM.

What about the TGI (A498 renal) of the same compound?
The TGI was 58.8 µM.

And the GI50 (TK-10 renal)?
Its GI50 is 13.5 µM.

What about the TGI (TK-10 renal) of the same compound?
The TGI was 29.3 µM.

What about the GI50 (MDA-MB-435) of the same compound?
The GI50 was over 100 µM.

What about the TGI (MDA-MB-435) of the same compound?
Its TGI is over 100 µM.

And the GI50 (CCRF-CEM leukemia)?
The GI50 was 3.59 µM.

What about the TGI (CCRF-CEM leukemia) of the same compound?
Its TGI is over 100 µM.

What about the GI50 (IGROV1 ovarian) of the same compound?
The GI50 was 3.64 µM.

And the TGI (IGROV1 ovarian)?
The TGI was 23.1 µM.

What about the GI50 (MALME-3M melanoma) of the same compound?
Its GI50 is 2.49 µM.

And the TGI (MALME-3M melanoma)?
Its TGI is 74.4 µM.

And the GI50 (CAKI-1 renal)?
The GI50 was 10.6 µM.

And the TGI (CAKI-1 renal)?
Its TGI is 30.9 µM.

What about the GI50 (U251 CNS) of the same compound?
Its GI50 is 0.446 µM.

What about the TGI (U251 CNS) of the same compound?
The TGI was 2.83 µM.

And the GI50 (SF-295 CNS)?
Its GI50 is 5 µM.

And the TGI (SF-295 CNS)?
The TGI was 18.8 µM.

And the GI50 (UO-31 renal)?
The GI50 was 30.2 µM.

What about the TGI (UO-31 renal) of the same compound?
Its TGI is over 100 µM.

And the GI50 (HOP-62 NSCLC)?
The GI50 was 14.7 µM.

And the TGI (HOP-62 NSCLC)?
The TGI was 30.2 µM.

What about the GI50 (A549 NSCLC) of the same compound?
The GI50 was 29.5 µM.

And the TGI (A549 NSCLC)?
Its TGI is over 100 µM.

And the GI50 (MCF7 breast)?
The GI50 was 7.3 µM.

What about the TGI (MCF7 breast) of the same compound?
Its TGI is over 100 µM.

What about the GI50 (HCT-15 colon) of the same compound?
Its GI50 is 3.31 µM.

What about the TGI (HCT-15 colon) of the same compound?
Its TGI is 20.5 µM.

What about the GI50 (RPMI-8226 leukemia) of the same compound?
The GI50 was 3.97 µM.

What about the TGI (RPMI-8226 leukemia) of the same compound?
The TGI was over 100 µM.

What about the GI50 (K-562 leukemia) of the same compound?
The GI50 was over 100 µM.

What about the TGI (K-562 leukemia) of the same compound?
Its TGI is over 100 µM.

What about the GI50 (UACC-257 melanoma) of the same compound?
Its GI50 is 54.9 µM.

And the TGI (UACC-257 melanoma)?
Its TGI is over 100 µM.

What about the GI50 (DU-145 prostate) of the same compound?
Its GI50 is 10.7 µM.

What about the TGI (DU-145 prostate) of the same compound?
The TGI was over 100 µM.

And the GI50 (SN12C renal)?
The GI50 was 22.7 µM.

What about the TGI (SN12C renal) of the same compound?
The TGI was over 100 µM.

And the GI50 (EKVX NSCLC)?
The GI50 was 7.99 µM.

And the TGI (EKVX NSCLC)?
Its TGI is 67.6 µM.
